Reference: ChEMBL document CHEMBL5729331, “Small molecule activators of nicotinamide phosphoribosyltransferase (NAMPT) and uses thereof” (2022)

Molecular target: Nicotinamide phosphoribosyltransferase (Homo sapiens, UniProt P43490)
Test: Enzyme Assay and NMN Detection: NAMPT reaction was performed in 50 mM HEPES, pH 7.5, containing 5 mM MgCl2, 0.1% Prionex, 0.005% Tween 20, and 1 mM TCEP at room temperature in Greiner 384-well black polypropylene plates. […] Following 2 h incubation the reaction was stopped by addition 2.5 ul 20% acetophenone in dimethyl sulfoxide (DMSO) and 2.5 ul 2 MKOH. Plates were centrifuges and added with 10.5 ul 88% formic acid. […] The increased concentration of NMN was determined from a calibration curve obtained at the time of experiment.

Chain of Nicotinamide phosphoribosyltransferase (P43490 whole entry): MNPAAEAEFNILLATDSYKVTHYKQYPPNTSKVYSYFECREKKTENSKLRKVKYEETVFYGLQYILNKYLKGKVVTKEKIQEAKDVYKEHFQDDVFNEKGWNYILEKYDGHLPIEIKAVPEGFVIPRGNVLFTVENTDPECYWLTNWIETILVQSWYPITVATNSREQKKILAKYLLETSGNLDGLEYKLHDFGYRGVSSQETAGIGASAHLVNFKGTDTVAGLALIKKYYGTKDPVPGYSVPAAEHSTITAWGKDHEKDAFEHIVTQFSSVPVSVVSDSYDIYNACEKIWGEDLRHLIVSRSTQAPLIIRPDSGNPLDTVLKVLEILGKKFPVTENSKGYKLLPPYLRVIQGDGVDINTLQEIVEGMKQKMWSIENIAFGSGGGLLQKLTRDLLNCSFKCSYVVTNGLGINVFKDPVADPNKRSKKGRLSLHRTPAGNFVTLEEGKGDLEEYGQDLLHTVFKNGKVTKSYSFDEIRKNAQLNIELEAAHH

| Compound | EC50 [µM] |
| --- | --- |
| CCOC(=O)c1ccc(NC(=O)NCc2ccncc2)nc1 | > 20 |
| CCOC(=O)c1ccc(NC(=O)NCc2ccncc2)cn1 | > 20 |
| NC(=O)c1ccc(NC(=O)NCc2ccncc2)nc1 | > 20 |
